Measured values reported in US20030005484A1, “Microbiocidal and pesticidal aromatic aldehydes” (ProGuard, Inc., priority 1994, published 2003).

Tests used:
Root Knot Nematode = test: vineyard grape vines, nematode infestation: root knot; type: in vivo
Procedure: The subject formulations were tested for ability to reduce grape vine infestation by root knot, ring, stubby root, and roll lesion nematodes. Grape vines (Harmony rootstock) in a vinyard were treated with 1000 ppm or 3000 ppm cinnamaldehyde in 2% Tween 80, the commercial anti-nematode agent Nemacur, or a formulation blank. The extent of nematode infestation was determined at the time of treatment and at 30 and 60 days post-treatment.

pacific mites = pacific mites on Chardonnay grapevines; type: in vivo; details: for PERCENT INHIBITION / POST-SPRAY MITES: 150 gal./acre, 4 days after spraying; for PRE-SPRAY MITES: baseline
Procedure: The effect of 0.3% and 0.6% cinnamic aldehyde on pacific mites on grapevine leaves was examined cinnamic aldehyde was diluted to 0.3% and 0.6% in water. Each formulation was sprayed onto a 1 acre block of Chardonnay wine grapes with a tractor-drawn 500 gal. hydraulic sprayer at 150 psi at a rate of 150 gal./acre. As a control, a 10-acre block of Chardonnay wine grapes was treated the same day as the test formulations with the conventional treatment (Omite) per label directions. The number of mites was counted the day prior to spraying and 4 days after spraying. […] In fact, both concentrations reduced the number of mites to a larger extent than the positive control, conventional treatment, Omite. The 0.6% rate nearly eliminated live mites on grapevines. […] The 0.6% was slightly beter than the 0.3 % cinnamic aldehyde with respect to powdery mildew control.

[1] = test system: thrips insects (Frankliniella occidentalis); test: residual activity on filter paper against thrips; type: in vivo; details: residue on filter paper, rehydrated 24 and 72 hours after spraying; thrips mortality after one hour
Procedure: In the first experiment, two ml of two concentrations of CNMA (0.3 and 1%) were sprayed on filter paper (Whatman). As a negative control, two ml of water also were sprayed on filter paper. Twenty-four hours later, two ml of water were sprayed on treatment and control filter paper, which were then dried for 30 min. Approximately 30 thrips insects (Frankliniella occidentalis) were introduced and the number of F. occidentalis were observed after one hour. Mean mortality was calculated for each treatment.
After 72 hours, the treatment filter papers were flipped over and only the negative control filter paper and the filter paper treated with 1% CNMA were sprayed with 2 ml of water and allowed to dry for 30 minutes. Approximately 30 thrips were introduced to the two treated filter papers and after one hour the number of dead F. occidentalis were observed and the mean mortality calculated for each treatment. A similar assay was conducted using a-hexyl cinnamaldehyde. Mean mortality was higher for rehydrated filter papers compared to non-rehydrated filter papers over time.

grape phylloxera eggs = test: whole plant or invertebrate; details: for eggs that did not hatch completely (IH) / nymphs that died in the shell (DIS): 7 days
Procedure: Mixed age groups of 60 grape phylloxera eggs were established on filter paper (Whatman #1, 5.5 cm circles) in 50×9 mm sealed plastic petri dishes treated with 100 μl of solution. A selected concentration of a test formulation of 400 μl was added to the filter disk and the dish closed with the petri dish cover and placed in a plastic container box. After 6 hours, the box was placed in an environmental chamber at 24° C. in the dark. The eggs were placed in groups of 10. After one week, the percentage of hatch is determined. In an initial test, doses from 0.1 to 25,000 ppm cinnamic aldehyde in 6% NaHCO3 and 2% Tween 80 were evaluated with a single group of eggs at each dosage. Three replicates of the experiment were performed. […] LD50 and LD95 were determined by probit analysis.
Grape phylloxera eggs were treated with cinnamaldehyde (CNMA) in a 6% NaHCO3, 2% Tween-80 formulation in a laboratory bioassay. Mortality of the eggs was indicated by failure of the egg shell to split. […] Leaves of one-year-old greenhouse Vitis vinifera cultivar Merlot vines heavily infested with grape phylloxera were sprayed to run-off with a CNMA treatment using the same formulation. […] Roots taken from plants 1, 2 and 5 weeks after CNMA or other treatments were placed in Petri dish bioassays and infested with untreated phylloxera eggs.
Eggs of various age classes were placed on Whatman #1 filter paper moistened with enough treatment solution to form a meniscus about halfway up the sides of the eggs. The pieces of filter paper with eggs were maintained in sealed plastic Petri dishes at […] until they were 7 days old and then hatched individuals were counted. Hatch was considered successful if the […]

[2] = test system: western flower thrips, Frankliniella occidentalis; test: western flower thrips dose-mortality on miniature rose foliage; type: in vivo
Procedure: Dose-mortality response of CNMA formula against western flower thrips, Frankliniella occidentalis, was evaluated. Three different dose levels of the CNMA formulation were tested in comparison with a water only control. Tests were conducted using 500 ml ventilated paper cartons as experimental areas containing miniature rose foliage with approximately 30 adult F. occidentalis in each. An F. occidentalis colony (U.C. Davis, Department of Entomology) maintained on chrysanthemums and miniature rose was the source of thrips for the study. Three active ingredient dose levels (0.1, 0.3, and 1.0%) were sprayed onto the plants using a laboratory spray tower calibrated to spray the field equivalent of 113 L per acre at the desired dosage. Four replicates (4 observations per treatment) were compared for each dosage. For each test, treatment cartons received the treatment and were maintained at room temperature. […] Table 20 presents the mean mortality treatment data.

[3] = 1000 ppm in 2% Tween 80, 30 days post-treatment
[4] = 1000 ppm in 2% Tween 80, 60 days post-treatment
[5] = 1000 ppm in 2% Tween 80, day 0 (time of treatment)
[6] = 3000 ppm in 2% Tween 80, 30 days post-treatment
[7] = 3000 ppm in 2% Tween 80, day 0 (time of treatment)
[8] = 10 ppm in 6% NaHCO3, 2% Tween 80
[9] = 100 ppm in 6% NaHCO3, 2% Tween 80

O=C/C=C/c1ccccc1 [cinnamic aldehyde]
Root Knot Nematode, nematodes per 250 cc soil (Root Knot Nematode; [3]): 872 per 250 cc soil | Root Knot, nematodes per gram root (Root Knot Nematode; [3]): 55.2 per gram root | Root Knot Nematode, nematodes per 250 cc soil (Root Knot Nematode; [4]): 204.5 per 250 cc soil | Root Knot, nematodes per gram root (Root Knot Nematode; [4]): 11.8 per gram root | Root Knot Nematode, nematodes per 250 cc soil (Root Knot Nematode; [5]): 498.8 per 250 cc soil | Root Knot, nematodes per gram root (Root Knot Nematode; [5]): 301.3 per gram root | Root Knot Nematode, nematodes per 250 cc soil (Root Knot Nematode; [6]): 700 per 250 cc soil | Root Knot, nematodes per gram root (Root Knot Nematode; [6]): 125.6 per gram root | Root Knot Nematode, nematodes per 250 cc soil (Root Knot Nematode; 3000 ppm in 2% Tween 80, 60 days post-treatment): 269.8 per 250 cc soil | Root Knot Nematode, nematodes per 250 cc soil (Root Knot Nematode; [7]): 379.8 per 250 cc soil | Root Knot, nematodes per gram root (Root Knot Nematode; [7]): 24.4 per gram root | PERCENT INHIBITION (pacific mites; 0.3% CNMA in water): 89% | POST-SPRAY MITES (pacific mites; 0.3% CNMA in water): 4.5 | PERCENT INHIBITION (pacific mites; 0.6% CNMA in water): 98% | POST-SPRAY MITES (pacific mites; 0.6% CNMA in water): 0.5 | PRE-SPRAY MITES (pacific mites; day prior to spraying 0.3% CNMA): 41.4 | PRE-SPRAY MITES (pacific mites; day prior to spraying 0.6% CNMA): 32.5 | residual activity [1]: have residual activity | 7 day EC50, egg mortality (failure of the egg shell to split) (grape phylloxera eggs; 6% NaHCO3, 2% Tween-80 formulation): 115 ppm | eggs that did not hatch completely (IH) (grape phylloxera eggs; [8]): 100% | nymphs that died in the shell (DIS) (grape phylloxera eggs; [8]): none died in the shell | eggs that did not hatch completely (IH) (grape phylloxera eggs; [9]): 12% | nymphs that died in the shell (DIS) (grape phylloxera eggs; [9]): 88% | nymphs that died in the shell (DIS) (grape phylloxera eggs; 100 ppm in 6% NaHCO3, 2% Tween 80 plus 0.86 ml of 10 brix saponin solution): 93% | nymphs that died in the shell (DIS) (grape phylloxera eggs; 5000 ppm aldehyde in 6% NaHCO3, 2% Tween 80): all nymphs died in the shell | Approximate Percent Mortality, egg test (grape phylloxera eggs; CNMA 100 ppm, Days of Treatment 1): 8% | Approximate Percent Mortality, egg test (grape phylloxera eggs; CNMA 100 ppm, Days of Treatment 2): 0% | Approximate Percent Mortality, egg test (grape phylloxera eggs; CNMA 100 ppm, Days of Treatment 3): 0% | Approximate Percent Mortality, egg test (grape phylloxera eggs; CNMA 100 ppm, Days of Treatment 4): 6% | Approximate Percent Mortality, egg test (grape phylloxera eggs; CNMA 100 ppm, Days of Treatment 5): 25% | Approximate Percent Mortality, egg test (grape phylloxera eggs; CNMA 180 ppm, Days of Treatment 1): 100% | Approximate Percent Mortality, egg test (grape phylloxera eggs; CNMA 180 ppm, Days of Treatment 2): 0% | Approximate Percent Mortality, egg test (grape phylloxera eggs; CNMA 180 ppm, Days of Treatment 3): 0% | Approximate Percent Mortality, egg test (grape phylloxera eggs; CNMA 180 ppm, Days of Treatment 4): 47% | Approximate Percent Mortality, egg test (grape phylloxera eggs; CNMA 180 ppm, Days of Treatment 5): 72% | Approximate Percent Mortality, egg test (grape phylloxera eggs; CNMA 320 ppm, Days of Treatment 1): 100% | Approximate Percent Mortality, egg test (grape phylloxera eggs; CNMA 320 ppm, Days of Treatment 2): 37% | Approximate Percent Mortality, egg test (grape phylloxera eggs; CNMA 320 ppm, Days of Treatment 3): 28% | Approximate Percent Mortality, egg test (grape phylloxera eggs; CNMA 320 ppm, Days of Treatment 4): 85% | Approximate Percent Mortality, egg test (grape phylloxera eggs; CNMA 320 ppm, Days of Treatment 5): 100% | approximate egg hatch LD 50 (grape phylloxera eggs; egg tests with CNMA analogs): 320 ppm | Mean Thrip Mortality ([2]; 0.1% CNMA (C), sampling time 1615): 0.13 | Mean Thrip Mortality ([2]; 0.1% CNMA (C), sampling time 1645): 0.17 | Mean Thrip Mortality ([2]; 0.1% CNMA (C), sampling time 1715): 0.17 | Mean Thrip Mortality ([2]; 0.1% CNMA (C), sampling time 1845): 0.19 | Mean Thrip Mortality ([2]; 0.1% CNMA (C), sampling time 2215): 0.25 | Mean Thrip Mortality ([2]; 0.3% CNMA (B), sampling time 1615): 0.26 | Mean Thrip Mortality ([2]; 0.3% CNMA (B), sampling time 1645): 0.28 | Mean Thrip Mortality ([2]; 0.3% CNMA (B), sampling time 1715): 0.28 | Mean Thrip Mortality ([2]; 0.3% CNMA (B), sampling time 1845): 0.37 | Mean Thrip Mortality ([2]; 0.3% CNMA (B), sampling time 2215): 0.40 | Mean Thrip Mortality ([2]; 1.0% CNMA (A), sampling time 1615): 0.79 | Mean Thrip Mortality ([2]; 1.0% CNMA (A), sampling time 1645): 0.82 | Mean Thrip Mortality ([2]; 1.0% CNMA (A), sampling time 1715): 0.78 | Mean Thrip Mortality ([2]; 1.0% CNMA (A), sampling time 1845): 0.84 | Mean Thrip Mortality ([2]; 1.0% CNMA (A), sampling time 2215): 0.84
